Measured values taken from article PMC6394990, “Detailed characterization of the solution kinetics and thermodynamics of biotin, biocytin and HABA binding to avidin and streptavidin” (PLoS ONE, 2019).
Several values for one entry are separate records, joined by “and”; a condition that tells them apart may be missing. Identical values can stand only once. Marks after values point to notes of the source that are not given here.

Assays:
[1] = molecular target: T1, avidin (AV) (Gallus gallus, UniProt P02701); experiment: Relaxation kinetics of unlabeled biotin reacting with the AV-HABA complex; type: binding; conditions: pH 8 and 23°C; read-out: konB, association rate of unlabeled B7 to the final site (AV-HABA3)
T1 construct: purchased Calbiochem (La Jolla, CA)
Method: All of the following protein concentrations are presented on a binding site basis, thus in the case of the HABA association reactions for AV were measured at 23.0 ± 0.1°C with a concentration of 87 μM HABA and 7.7 μM AV. The AV-HABA relaxation reactions were conducted with a preformed AV-HABA complex made up of 200 μM HABA and 10 μM AV, flowed against varying amounts of B7 from 100 μM up to 4000 μM for a [HABA]/[B7] ratio that ranged from 0.05 to 2.
The relaxation experiments were prepared at concentrations in which HABA occupies all sites (AV-HABA4). Biotin replaces HABA relative to the koff of the dye as shown for the first step (Eq 1) and then repeated for all sites. Having greater affinity, B7 occupies all sites at the end of the reaction and the measured kon is related to the affinities of the ligand bound protein.
The reaction is monitored by the HABA absorbance changes at 500 nm as it is replaced by unlabeled B7; yielding the relaxation constant of the reaction (Relaxation, Eq 2) which contains information of the B7 association rate constant of the open binding site, k1AV−HABA3 to form a full saturated complex (AV-HABA4) and the dissociation rate of that full complex, k−1AV−HABA4 , to yield a complex with three HABA molecules (AV-HABA3). In the subsequent steps, B7 replaces HABA as the ligand but the release of HABA creates an unoccupied site that remains in the same state. In summary, the experiment was designed to acquire the pseudo-first order association rate constant of B7 binding ( konB ) to the solely free binding site in a complex occupied by three HABA molecules (AV-HABA3).
The reciprocal of the relaxation constant (1/Relaxation) is plotted vs. the [HABA]/[B] concentration ratio (Eq 3) allowing to calculate: k−1AV−HABA4 and k1AV−HABA3 by solving for the intercept ( 1/k−1AV−HABA4 ) and the respective slope: m=k1AV−HABA3/(k−1AV−HABA4∙konB) . The exponential decays were analyzed by the method of Foss. There was no departure from simple first order decay in the relaxation, justifying the use of the following model and equations.

[2] = molecular target: T1, avidin (AV); experiment: Literature calorimetry reaction thermodynamics; type: binding; conditions: AV-B7, average of the reported values

T1 sequence (P02701 25-152): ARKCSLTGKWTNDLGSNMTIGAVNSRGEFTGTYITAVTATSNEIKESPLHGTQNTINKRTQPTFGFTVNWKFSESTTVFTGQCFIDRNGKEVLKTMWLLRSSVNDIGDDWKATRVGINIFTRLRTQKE

O=C(O)CCCC[C@@H]1SC[C@@H]2NC(=O)N[C@@H]21 [B7, d-biotin]
kon [1]: 5.3e+06 ± 9e+11 M⁻¹ s⁻¹ | ΔG°rxn, averaged value [2]: -20.7 ± 0.3 kcal/mol | ΔH°rxn, averaged value [2]: -23.2 ± 1.7^d kcal/mol and -23.2 ± 1.7 d kcal/mol | ΔG°rxn, averaged value ([2]; listed as B): -20.7 ± 1.0 kcal/mol | ΔH°rxn, averaged value ([2]; listed as B): -23.2 ± 1.0 kcal/mol
